# From a melting point compilation (Tetko et al.; mined from patent text by program, amines drawn as free bases though some values may be those of a salt)
row,SMILES,melting point
1,CCCOc1ccccc1-c1ccc(N)c(=O)[nH]1,158 to 161 °C
2,COc1ccccc1OCCCc1nc(-c2ccc(Cl)cc2)co1,94 to 95 °C
3,CCCCc1nc2cc(C)c(C)cc2n1Cc1ccc(C#N)cc1,160 °C
4,COC(=O)c1cccc(CN2C(=O)C3(COc4cc5c(cc43)OCCO5)c3ccccc32)c1 (centres undefined),89 to 97 °C
5,O=C1C=C(O)CC(c2ccccc2)O1 (centres undefined),145 to 146 °C
6,CC(=O)Nc1cccc(-c2ccnc3c(C(=O)c4cccs4)cnn23)c1,245 to 247 °C
7,CCOc1cc2ncc(C#N)c(Nc3cccc(F)c3)c2cc1OCC,192 to 195 °C
8,CC(C)c1ccc(Oc2ccc(CCNc3ncnc4nccnc34)cc2)cc1,105 to 106 °C
9,O=C(NNS(=O)(=O)c1ccccc1)c1ccnc2ccccc12,153 to 156 °C
10,Cc1cc(COc2ccc(S(=O)(=O)NC[C@@H](C(=O)NO)N3CCN(Cc4ccccc4)CC3)cc2)c2ccccc2n1,188 °C
11,CC(=O)c1ccc(CNS(=O)(=O)c2ccc(C)cc2)cc1,125 to 128 °C
12,Brc1cncc(C2CCCCN2)c1 (centres undefined),97 to 97.5 °C
13,COc1cc(-c2nc(N(C)CCN(C)C)c3c(C)c(C#N)sc3n2)cc(OC)c1OC,125 to 127 °C
14,O=c1[nH]nc(-c2ccccc2)c(-c2ccccc2)c1S(=O)(=O)c1ccccc1,254 to 256 °C
15,CCOC(=O)C1=Cc2cc(C(F)(F)C(F)(F)F)ccc2OC1C(F)(F)F (centres undefined),162 to 165 °C
16,O=[N+]([O-])c1cccc(CNc2nnn[nH]2)c1,208 to 210 °C
17,OCc1cn(Cc2ccc3cc(OCc4ccccc4)ccc3c2)cc1-c1ccccc1,116 to 117 °C
18,CCOc1ccc2c(c1)n(C1CCCCC1)c(=O)n2S(=O)(=O)c1ccc(C(=O)NC(C)(C)CN(C)C)cc1OC,161 °C
19,CCOC(=O)C(Oc1ccc(C(=O)CBr)cc1)C(=O)OCC,55 to 58 °C
20,Nc1ccccc1C(=O)NN=Cc1c(O)ccc2ccccc12,188 to 191 °C
21,CC#Cc1cc(=O)n2nc(S(=O)(=O)CCCCCC)sc2n1,122 to 125 °C
22,CN1CCN(c2ccc3cnn(C)c3n2)CC1,106 to 107 °C
23,CCOC(=O)C(C)=CC=CC(C)=CC=CC=C(C)C=O,120 to 121 °C

row,SMILES,melting point
1,O=C(Nc1ccc2nc(CN3CCCCC3)ccc2c1)c1ccc(-c2ccc(F)cc2)cc1,202 to 204 °C
2,O=C(O)C(Oc1ccc(N2CCCCC2)cc1)c1cccc(Cl)c1 (centres undefined),149 to 151 °C
3,COC(=O)NC(C(=O)O)c1ccc([N+](=O)[O-])cc1 (centres undefined),152 °C
4,CC(C)(C)c1cc(-c2nnc(S(C)(=O)=O)s2)cc(C(C)(C)C)c1O,156 °C
5,COc1ccc(C(=O)CCCCCBr)cc1F,47 to 48 °C
6,O=C(CCCN1CCN(c2noc3cc(OC(=O)C45CC6CC(CC(C6)C4)C5)ccc23)CC1)c1ccc(F)cc1,157 to 158 °C
7,CCN(CC)CC/C=C/c1ccc2c(Nc3ccc(Sc4nccn4C)c(Cl)c3)c(C#N)cnc2c1,200 to 210 °C
8,Cc1ccc(NC(=O)c2ccc(CN3CCN(CCO)CC3)c(C(F)(F)F)c2)cc1Nc1nccc(-c2cncnc2)n1,188 to 192 °C
9,O=C1Cc2cc(C(F)(F)F)ccc2N1,188 to 190 °C
10,Nc1cc(Cl)ncc1F,110 to 111 °C
11,CSc1cnc(NC(=O)C(Cc2ccc(F)cc2)c2ccc(S(C)(=O)=O)cc2)cn1 (centres undefined),188 °C
12,C=C(CCC)C(=O)c1cc2oc(C(=O)O)cc2c(C)c1C,172 °C
13,COC(=O)CC[C@H](NC(=O)c1ccc(CCn2cnc3nc(NC(=O)C(C)(C)C)cc-3c2O)cc1)C(=O)OC,247 °C
14,CCCCCCCCCCCCCCCCCCOc1ccc(C(=O)OCC)cc1[N+](=O)[O-],48 to 56 °C
15,COC(=O)Cc1cc(O)nn1C,147 to 148 °C
16,CNC(=O)[C@@H]1C=CCN1S(=O)(=O)c1ccc(Cl)c(CBr)c1Cl,66 °C
17,O=C(O)CNC(=O)C(S)Cc1ccccc1 (centres undefined),55 to 58 °C
18,CCCCCCCCCCCC1CCC(O)C(=O)O1 (centres undefined),95 to 96 °C
19,Cc1cc(C(O)=S)cc(N)c1C(=O)c1ccccc1,158 to 159 °C
20,CN(C)CCNC(=O)c1ccc(-c2cnc3c(c2)N(C(=O)c2ccccc2)CCN3)cc1,145 to 147 °C
21,COc1ccc(C=Nc2ccccc2SCc2ncon2)cc1OC,146 °C
22,CCOC(=O)CCCCC1CC(n2c3ccccc3c3ccccc32)c2ccccc2N1C(=O)c1ccc(OC)c(OC)c1 (centres undefined),195 to 196 °C
23,C[C@@H]1OCc2cc3c(nc21)N1[C@H](C3)CN(C(=O)OC(C)(C)C)C[C@H]1C,143 to 144 °C

row,SMILES,melting point
1,c1ccc(CCn2cc3c(ncn4nc(-c5ccco5)nc34)n2)cc1,268 to 270 °C
2,O=C(O)CCc1oc(-c2ccc3c(c2)OCO3)nc1-c1ccc(Cl)cc1,199 to 200 °C
3,Cn1cnc2c(=S)[nH]ccc21,> 300 °C
4,COc1ccc(S(=O)(=O)N2c3ccc(Br)cc3-c3ccccc3C2C(C)(C)C)cc1 (centres undefined),195 to 198 °C
5,CCc1ccc2oc(C(=O)Nc3ccc(-c4ccc(S(=O)(=O)NC(C(=O)O)C(C)C)cc4)cc3)c(C)c2c1OC (centres undefined),225 to 228 °C
6,O=C(O)c1ccc(C#Cc2ccccc2F)o1,196 to 198 °C
7,COCCNC(=O)c1cccc(-c2cccc3cc(Cc4cc(F)ccc4F)sc23)c1,92 to 94 °C
8,COc1ccc(S(=O)(=O)C2(C(=O)O)CCN(Cc3ccc(F)cc3)CC2)cc1,154 °C
9,CC(C)Nc1nc(NC(C)C)nc(OC(F)F)n1,81 to 82 °C
10,FC(F)(F)Sc1ccc(C=Cc2nc(CCl)cs2)cc1,133 to 134 °C
11,O=S(=O)(NCC(O)(Cn1cncn1)c1ccc(F)cc1F)c1ccc(F)cc1 (centres undefined),140 to 146 °C
12,COc1cccc(CC(=O)O)c1OCCCc1cn(-c2ccc(C(F)(F)F)cn2)nc1C(C)C,142 to 143 °C
13,COCCN(CCOC)c1nc(C)[nH]c2c(-c3ccc(Cl)cc3Cl)nc(C)c1-2,74 to 75 °C
14,CNC(=O)c1ccc(C=CC(=O)OC)cc1,210 °C
15,COc1ccc(C(O)CN2CCNC2=S)cc1 (centres undefined),110 °C
16,Cc1nc2c(s1)CCN(C(=O)c1ccc(NC(=O)c3ccccc3-c3ccccc3)cc1)c1ccccc1-2,165 to 168 °C
17,N#Cc1[nH]c(-c2c(Cl)cc(C(F)(F)F)cc2Cl)nc1C(N)=O,254 to 255 °C
18,CC(C)(C)OC(=O)N1CCOc2ccc(O)cc2S1(=O)=O,143 °C
19,O=C(O)CCc1c(C(=O)O)[nH]c2cc(I)ccc12,230 to 232 °C
20,COc1cccc(OC)c1C(=O)Oc1cc([N+](=O)[O-])cc([N+](=O)[O-])c1O,217 to 218 °C
21,CCOC(=O)c1c(N=Cc2ccc([N+](=O)[O-])s2)sc(N=Cc2ccc([N+](=O)[O-])s2)c1C(=O)OCC,255 to 257 °C
22,Brc1ccc2c(c1-c1c(Br)ccc3c1CCCC3)CCCC2,146 to 147 °C

# Continued, values first:
row,melting point,SMILES
1,95 to 98 °C,CCCCCCCC1CC(C(=O)Nc2c(C(C)C)cccc2C(C)C)C(=O)O1 (centres undefined)
2,94.5 to 95.5 °C,CCOC(=O)C(C)c1ccc(NC(C)=O)cc1 (centres undefined)
3,204 to 205 °C,COc1cc2c3c(cccc3c1N1CCCCC1)C(=O)N(O)C2=O
4,121 to 125 °C,CN(C)CC(C(O)c1ccc(N)cc1)N1CCC(Cc2ccccc2)CC1 (centres undefined)
5,266 to 267 °C,CS(=O)c1ccc(-c2coc3ccc(-c4nnc(N)o4)cc23)cc1Cl (centres undefined)
6,55 °C,COC(=O)CCCc1ccc(CNC(=O)C2Cc3ccccc3N2S(=O)(=O)c2ccc(-c3cccc(C(F)(F)F)c3)cc2)cc1 (centres undefined)
7,137 to 142 °C,O=C(O)COc1cccc2c1CCC(COC(=O)N(c1ccccc1)c1ccccc1)C2 (centres undefined)
8,92 °C,COc1ccc(NCCOc2ccc3ccccc3c2)cc1
9,205 to 208 °C,CC12CC(O)C3c4ccccc4C(=O)CC3C1CCC2O (centres undefined)
10,245 to 246 °C,CC(=O)Nc1ccc2c(c1)cc(C(=O)O)n2Cc1ccc(Cl)c(Cl)c1
11,180 to 181 °C,CCOC(=O)CCc1ccc(N[C@@H](CCC(N)=O)C(=O)O)cc1
12,131 to 132 °C,O=C(CN1CCc2c([nH]c3ccccc23)C1c1ccccc1)OCc1ccccc1 (centres undefined)
13,244 to 246 °C,CCCc1cc(=O)oc2c(C(=O)CC)c(O)cc(O)c12
14,> 230 °C,Cn1cc(NC(=O)c2cc(NC(=O)c3cc([N+](=O)[O-])cn3C)cn2C)cc1C(=O)NCCN1CCOCC1
15,69 to 72 °C,N#Cc1ccc(CN2C(=O)C3(COc4cc5c(cc43)OCCO5)c3ccccc32)cc1 (centres undefined)
16,169 to 172 °C,CC(O)c1cc2c3ccccc3n(C)c(=O)n2n1 (centres undefined)

row,melting point,SMILES
1,139 to 141 °C,O=C1N(Cc2ccc(C(F)(F)F)o2)c2ccc(F)cc2C12COc1cc3c(cc12)OCO3 (centres undefined)
2,66 to 68 °C,CCCC(=O)c1cnc2cc(COC(=O)c3ccccc3)ccc2c1Cl
3,225 to 227 °C,CC(C)n1nc(-c2ncc(O)nc2-c2ccccc2)ccc1=O
4,179 to 182 °C,Cc1ccc(NCC2CCN(C3CCCCC3)CC2)c(C(=O)Nc2ccc(Cl)cn2)c1
5,84 to 87 °C,O=C(NCN1CCCCC1)Nc1ccc(-c2cnc(CSCCOc3ccccc3)o2)cc1
6,234 to 236 °C,O=C(O)Cc1cccc2c1NC(=O)C2
7,239 to 242 °C,Cc1nc(N2CCN(Cc3ccc(F)cc3)C2=O)sc1-c1cc[nH]n1
8,203 to 205 °C,CC(C)c1ccc(-c2nc3ccc(OC(F)(F)F)cc3[nH]2)cc1
9,85 to 93 °C,"CCCNC(=O)C(C)Cc1ccc2c(c1)c(Cc1ccc(C(=O)O)cc1OC)cn2CCC (single isomer, unassigned; (-))"
10,84 to 85 °C,CC(C(=O)CC#N)c1ccc(-c2ccccc2)c(F)c1 (centres undefined)
11,114 to 120 °C,CCOC(=O)C1=Cc2cc(C(O)C(F)(F)F)ccc2OC1C(F)(F)F (centres undefined)
12,218 °C,CC(=O)C1=C(O)C(=C(C)Nc2cccc(NC(=O)C(O)CO)c2)C(=O)OC1=O (centres undefined)
13,197 to 199 °C,CC(C)(C)c1ccc(C(=O)NNS(=O)(=O)c2ccccc2)cc1
14,197 to 200 °C,CC(C)N1C(=O)NC(c2ccc3c(c2)OCO3)c2cc3c(cc21)OCCO3 (centres undefined)
15,260 to 262 °C,Cc1cc2c(cc1C)N(C)c1cscc1C(=O)N2
